# From patent US11814367B2, “Inhibitors of glycogen synthase 1 (GYS1) and methods of use thereof” (Maze Therapeutics, Inc., priority 2021, dated 2023)
# Columns and labels:
# [1] = test system: hGYS1 enzyme / glycogen synthesis in HeLa cells; assay: GYS1 cell based assay (glycogen synthesis, Glucose-glo); set-up: species or system human; settings: 24 h incubation, 20 mM glucose, geometric mean of at least 2 runs
# Text: The GYS1 cell based assay is a bioluminescent assay that quantifies the glucose resulting from glycogen digestion; the quantified glucose is an indirect measure of GYS1 glycogen synthesis. Newly synthesized glycogen is digested using Glucoamylase; the resulting glucose is quantified by using the Glucose-glo assay kit from Promega. Glucose-glo works by coupling glucose oxidation and NADH production with a bioluminescent system that is activated with NADH. Glucose is oxidized by Glucose dehydrogenase and the reaction reduces NAD+ to NADH; NADH activates Reductase which reduces a pro-luciferin Reductase Substrate to luciferin. Luciferin is detected in a luciferase reaction using Ultra-Glo rLuciferase and ATP, and the luminesce produced is proportional to the glucose in the sample. The luminescence is measured as a single point read in a plate reader.
# Compounds that inhibit the hGYS1 enzyme and, subsequently, the glycogen synthesis in cells, were tested using assay ready plates (white, clear bottom 384 well plates) in a final DMSO reaction volume of 1% DMSO. Compounds in the assay ready plates were mixed with media with no additives, except for 20 mM glucose prior to cell addition. HeLa cells were starved in media with no additives, except for 1× Glutamax for 24 h. Starved HeLa cells were plated, in a 1:1 ratio to the media in the assay ready plate and incubated for 24 h at 37° C. and 5% C02. Cells were washed in 1×PBS buffer and lysed in lysis buffer containing 50% 1×PBS and 25% 0.3 N HCl of the final volume in the well or reaction volume; cells were incubated with lysis buffer for 10 minutes and quenched with the remaining 25% of the reaction volume that consisted of 450 mM Tris pH 8.0. Lysates were mixed in a 1:1 ratio with Glucoamylase in 100 mM Sodium Acetate buffer, pH 5.3; the mixture was incubated for 1 h at 37° C. The digested lysate was mixed in a 1:1 ratio with Glucose-glo detection mixture as per vendor recommendations (Luciferase detection buffer, Reductase, Reductase substrate, Glucose dehydrogenase, and NAD) in read-out plates (solid white 384-well plates) and incubated for 1 h at RT. The plates were read using a plate reader with luminescence capabilities. Each compound concentration Relative Luminescence Unit (RLU) was averaged and normalized to the average RLU of the positive and negative controls to obtain a percentage inhibition. The normalized data vs. concentration was plotted; to determine the half-maximal concentration (IC50), the Levenberg-Marquardt algorithm was used to fit a Hill equation to the dose response data.
# The results are shown in Table 3 below, which reports the IC50 of each compound. Unless otherwise specified, IC50 values are reported as the geometric mean of at least 2 assay runs on separate days. As shown in the table below, the compounds of the present invention are potent inhibitors of human GYS1. Unless otherwise specified, IC50 values are reported as the geometric mean of at least two assay runs on separate days. Each run represents the average of a technical replicate, where each compound was assayed twice in the same plate. A superscript “#” symbol in Table 3 indicates results from a single assay run.
# [2] = target: hGYS1 enzyme (recombinant hGYS1/GN1 protein) (Homo sapiens (Human), UniProt P13807); assay: GYS1 coupled enzyme assay (PK/LDH); format: biochemical; settings: hGYS1/GN1 50 nM, UDP-Glucose 0.8 mM, G6P 1 mM; geometric mean of at least 2 runs
# Sequence of hGYS1 enzyme (recombinant hGYS1/GN1 protein) (P13807 whole entry): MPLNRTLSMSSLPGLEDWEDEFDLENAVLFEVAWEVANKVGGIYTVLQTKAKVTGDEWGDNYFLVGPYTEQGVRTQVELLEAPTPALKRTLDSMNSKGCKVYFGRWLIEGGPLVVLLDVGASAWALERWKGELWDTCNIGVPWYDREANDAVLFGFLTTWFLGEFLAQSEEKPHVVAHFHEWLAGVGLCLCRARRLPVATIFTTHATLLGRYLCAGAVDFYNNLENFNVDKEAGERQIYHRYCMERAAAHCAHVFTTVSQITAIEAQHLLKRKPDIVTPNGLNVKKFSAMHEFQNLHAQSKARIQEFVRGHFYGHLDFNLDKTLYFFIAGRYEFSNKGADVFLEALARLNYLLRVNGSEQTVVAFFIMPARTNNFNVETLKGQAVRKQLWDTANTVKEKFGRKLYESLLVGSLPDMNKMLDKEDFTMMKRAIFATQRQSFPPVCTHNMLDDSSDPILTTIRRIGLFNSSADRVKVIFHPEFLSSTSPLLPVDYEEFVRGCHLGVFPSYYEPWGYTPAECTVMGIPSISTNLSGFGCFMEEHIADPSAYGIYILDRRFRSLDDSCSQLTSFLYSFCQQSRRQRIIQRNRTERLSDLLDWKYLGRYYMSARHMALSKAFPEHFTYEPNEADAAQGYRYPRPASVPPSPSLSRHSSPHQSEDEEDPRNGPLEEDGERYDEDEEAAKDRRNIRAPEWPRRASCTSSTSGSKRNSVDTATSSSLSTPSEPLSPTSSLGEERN
# Sequence of hGYS1 enzyme (recombinant hGYS1/GN1 protein) (P46976 whole entry partner): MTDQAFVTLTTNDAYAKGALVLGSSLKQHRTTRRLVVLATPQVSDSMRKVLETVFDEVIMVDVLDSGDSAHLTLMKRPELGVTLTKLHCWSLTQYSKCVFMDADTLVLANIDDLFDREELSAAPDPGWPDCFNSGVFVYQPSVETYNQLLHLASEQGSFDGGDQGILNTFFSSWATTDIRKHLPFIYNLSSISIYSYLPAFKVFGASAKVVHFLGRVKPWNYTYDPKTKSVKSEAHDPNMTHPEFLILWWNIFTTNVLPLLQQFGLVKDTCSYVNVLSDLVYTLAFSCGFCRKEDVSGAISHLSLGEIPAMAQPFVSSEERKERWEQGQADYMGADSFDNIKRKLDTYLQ
SMILES,IC50 [1] [nM],IC50 [2] [nM],"IC50 ([1]; Homo sapiens, HeLa, 24 h) [nM]"
"CC(C)c1ccc(C(NC(=O)[C@@H]2C[C@@H](F)CN2C(=O)Cc2cnn[nH]2)c2ccc3cn[nH]c3c2)nc1F (single isomer, unassigned) [Compound 633, (2S,4R)-4-fluoro-N-[(R) or (S)-[6-fluoro-5-(propan-2-yl)pyridin-2-yl](1H-indazol-6-yl)methyl]-1-[2-(1H-1,2,3-triazol-5-yl)acetyl]pyrrolidine-2-carboxamide]",> 30000,1600,–
"Cn1c(=O)[nH]c2c(C(NC(=O)[C@@H]3C[C@@H](F)CN3C(=O)Cc3cnn[nH]3)c3ccc(C4CC4)c(F)c3)cccc21 (single isomer, unassigned) [Compound 650, (2S,4R)-N-[(R) or (S)-(4-cyclopropyl-3-fluorophenyl)(1-methyl-2-oxo-2,3-dihydro-1H-1,3-benzodiazol-4-yl)methyl]-4-fluoro-1-[2-(1H-1,2,3-triazol-5-yl)acetyl]pyrrolidine-2-carboxamide]",–,1440,> 10000
"CC(C)c1ccc(C(NC(=O)[C@@H]2C[C@@H](F)CN2C(=O)Cc2cnn[nH]2)C2CC2)cc1F (single isomer, unassigned) [Compound 652, (2S,4R)-N-[(S) or (R)-cyclopropyl[3-fluoro-4-(propan-2-yl)phenyl]methyl]-4-fluoro-1-[2-(1H-1,2,3-triazol-5-yl)acetyl]pyrrolidine-2-carboxamide]",–,1200,21600
"CC(=O)N(C)[C@H](C)C(=O)N1C[C@H](F)C[C@H]1C(=O)N[C@@H](c1ccccc1)c1ccc(C(C)C)cc1 [Compound 145, (2S,4R)-4-fluoro-1-[(2R)-2-(N-methylacetamido)propanoyl]-N-[(S)-phenyl[4-(propan-2-yl)phenyl]methyl]pyrrolidine-2-carboxamide]",–,915,> 10000
"CC(=O)N1CCOCC1C(=O)N1C[C@H](F)C[C@H]1C(=O)N[C@@H](c1ccccc1)c1ccc(C(C)C)cc1 (stereo partly drawn) [Compound 149, (2S,4R)-1-(4-acetylmorpholine-3-carbonyl)-4-fluoro-N-[(S)-phenyl[4-(propan-2-yl)phenyl]methyl]pyrrolidine-2-carboxamide]",–,332,> 10000
"CC(=O)N1C[C@H]2CC[C@H](C(=O)N3C[C@H](F)C[C@H]3C(=O)N[C@@H](c3ccccc3)c3ccc(C(C)C)cc3)[C@H]2C1 [Compound 177, (2S,4R)-1-[(3aS,4S,6aS)-2-acetyl-octahydrocyclopenta[c]pyrrole-4-carbonyl]-4-fluoro-N-[(S)-phenyl[4-(propan-2-yl)phenyl]methyl]pyrrolidine-2-carboxamide]",–,349,2090
"CC(=O)N1C[C@@H]2C[C@@H]2[C@H]1C(=O)N[C@@H](c1ccccc1)c1ccc(C(C)C)cc1 [Compound 201, (1S,2S,5R)-3-acetyl-N-[(S)-phenyl[4-(propan-2-yl)phenyl]methyl]-3-azabicycl[3.1.0]hexane-2-carboxamide]",–,461,3700

# The remaining lines, values ahead:
IC50 [1] [nM],IC50 [2] [nM],"IC50 ([1]; Homo sapiens, HeLa, 24 h) [nM]",SMILES
–,127,1500,"O=C(NC(c1ccc(C2CC2)c(F)n1)c1ccccc1F)[C@@H]1C[C@@H](F)CN1C(=O)Cn1nnnc1C(F)F (single isomer, unassigned) [Compound 657, (2S,4R)-N-[(S) or (R)-(5-cyclopropyl-6-fluoropyridin-2-yl)(2-fluorophenyl)methyl]-1-{2-[5-(difluoromethyl)-1H-1,2,3,4-tetrazol-1-yl]acetyl}-4-fluoropyrrolidine-2-carboxamide]"
–,99,1660,"O=C(NC(c1ccc(F)cc1)c1ccc(C2CC2)c(F)n1)[C@@H]1C[C@@H](F)CN1C(=O)Cn1nnnc1C(F)F (single isomer, unassigned) [Compound 658, (2S,4R)-N-[(S) or (R)-(5-cyclopropyl-6-fluoropyridin-2-yl)(4-fluorophenyl)methyl]-1-{2-[5-(difluoromethyl)-1H-1,2,3,4-tetrazol-1-yl]acetyl}-4-fluoropyrrolidine-2-carboxamide]"
> 10000,1060,–,"Cc1cc(C(NC(=O)[C@@H]2C[C@@H](F)CN2C(=O)Cc2cnn[nH]2)c2ccccc2)cc(F)c1C(C)C (single isomer, unassigned) [Compound 678, (2S,4R)-4-fluoro-N-[(R) or (S)-[3-fluoro-5-methyl-4-(propan-2-yl)phenyl](phenyl)methyl]-1-[2-(1H-1,2,3-triazol-5-yl)acetyl]pyrrolidine-2-carboxamide]"
–,2360,> 30000,"CC(C)c1ccc(C(NC(=O)[C@@H]2C[C@@H](F)CN2C(=O)Cc2cnn[nH]2)c2ccccc2)cc1C(F)(F)F (single isomer, unassigned) [Compound 683, (2S,4R)-4-fluoro-N-[(S) or (R)-phenyl[4-(propan-2-yl)-3-(trifluoromethyl)phenyl]methyl]-1-[2-(1H-1,2,3-triazol-5-yl)acetyl]pyrrolidine-2-carboxamide]"
–,15,390,"CC(=O)NCC(=O)N1C[C@H](F)C[C@H]1C(=O)NC(c1cccc(-c2ccn[nH]2)c1)c1ccc(C(C)C)c(F)n1 (single isomer, unassigned) [Compound 691, (2S,4R)-1-(2-acetamidoacetyl)-4-fluoro-N-[(S) or (R)-[6-fluoro-5-(propan-2-yl)pyridin-2-yl][3-(1H-pyrazol-5-yl)phenyl]methyl] pyrrolidine-2-carboxamide]"
> 30000,2480,–,"CC(C)c1ccc(C(NC(=O)[C@@H]2C[C@@H](F)CN2C(=O)Cc2cnn[nH]2)c2cccc(-c3cnco3)c2)nc1F (single isomer, unassigned) [Compound 692, (2S,4R)-4-fluoro-N-[(R) or (S)-[6-fluoro-5-(propan-2-yl)pyridin-2-yl][3-(1,3-oxazol-5-yl)phenyl]methyl]-1-[2-(1H-1,2,3-triazol-5-yl)acetyl]pyrrolidine-2-carboxamide]"
1150,56,–,"CC(C)c1ccc(C(NC(=O)[C@@H]2C[C@@H](F)CN2C(=O)Cc2cnn[nH]2)c2cccc(-c3cnco3)c2)nc1F (single isomer, unassigned) [Compound 693, (2S,4R)-4-fluoro-N-[(S) or (R)-[6-fluoro-5-(propan-2-yl)pyridin-2-yl][3-(1,3-oxazol-5-yl)phenyl]methyl]-1-[2-(1H-1,2,3-triazol-5-yl)acetyl]pyrrolidine-2-carboxamide]"
–,929,> 26300,"CC(=O)N1C[C@H](F)C[C@H]1C(=O)NC(c1cccc(-c2ccnn2C)c1)c1ccc(C(C)C)c(F)n1 (single isomer, unassigned) [Compound 695, (2S,4R)-1-acetyl-4-fluoro-N-[(S) or (R)-[6-fluoro-5-(propan-2-yl)pyridin-2-yl][3-(1-methyl-1H-pyrazol-5-yl)phenyl]methyl] pyrrolidine-2-carboxamide]"
–,103,2710,"CC(=O)N1C[C@H](F)C[C@H]1C(=O)NC(c1cccc(-c2cc(C)n[nH]2)c1)c1ccc(C(C)C)c(F)n1 (single isomer, unassigned) [Compound 696, (2S,4R)-1-acetyl-4-fluoro-N-[(S) or (R)-[6-fluoro-5-(propan-2-yl)pyridin-2-yl][3-(3-methyl-1H-pyrazol-5-yl)phenyl]methyl] pyrrolidine-2-carboxamide]"
